Data on 63 compounds can be found in US20050004126A1 (priority 2001, published 2005).

Broadly, the IC50 is the concentration that inhibits the measured activity by half.

The experiment has as its target MMP-13CD (catalytic domain of collagenase 3) (Homo sapiens, UniProt P45452). Nature of the experiment: Thiopeptolide hydrolysis assay, MMP-13.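 Also: inhibition of enzymatic thiopeptolide substrate cleavage (100 µM) in pH 6.0 MES buffer with CaCl2 and DTNB, comparing hydrolysis with versus without inhibitor.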

Read-outs that look alike come from different tables or passages of the source.

`COc1ccc(CNC(=O)c2ccc3c(c2)c(=O)n(Cc2ccc(NS(C)(=O)=O)cc2)c(=O)n3C)cc1` registered an IC50 (MMP13 IC50 μM, Table IVb) of 0.004 µM.

`COc1ccc(CNC(=O)c2ccc3c(c2)c(=O)n(Cc2ccc(-c4ccccc4C#N)cc2)c(=O)n3C)cc1` yielded an IC50 (MMP13 IC50 μM, Table IVb) of 0.025 µM. Take `Cn1c(=O)n(Cc2ccc(F)cc2)c(=O)c2cc(C(=O)NCc3ccncc3)ccc21`: for the setting “MMP13 IC50 μM, Table IVb”, the IC50 worked out at 0.071 µM. The compound `COC(=O)c1ccc(Cn2c(=O)c3cc(C(=O)NCc4ccc(OC)cc4)ccc3n(C)c2=O)s1` gave an IC50 (MMP13 IC50 μM, Table IVb) of 0.021 µM.

In the case of `COc1cccc(CNC(=O)c2cc3c(=O)n(Cc4ccc(OC(C)(C)C(=O)O)cc4)c(=O)n(C)c3s2)c1`, the IC50 (read-out: MMP 13 IC50 μM, Table III) was determined as 0.0185 µM. The compound `Cn1c(=O)n(Cc2ccc(F)c(Cl)c2)c(=O)c2cc(C(=O)NCc3ccncc3)ccc21` registered an IC50 (MMP13 IC50 μM, Table IVb) of 0.026 µM.

Turning to `COc1ccc(CNC(=O)c2ccc3c(c2)c(=O)n(Cc2ccc(C(=O)O)o2)c(=O)n3C)cc1`, under “MMP13 IC50 μM, Table IVb”, the midpoint of inhibition, the IC50, lay at 0.057 µM. Compound `COc1ccc(CNC(=O)c2ccc3c(c2)c(=O)n(CCS(=O)(=O)c2ccccc2)c(=O)n3C)cc1` returned an IC50 (MMP13 IC50 μM, Table IVb) of 0.84 µM.

For `COc1ccc(CNC(=O)c2ccc3c(c2)c(=O)n(Cc2ccc(N(C)C)cc2)c(=O)n3C)cc1`, for the setting “MMP13 IC50 μM, Table IVb”, it took 0.028 µM to reach half-maximal inhibition (IC50). In turn, `O=C(O)Cn1c(=O)n(Cc2ccccc2)c(=O)c2cc(C(=O)NCc3ccc4c(c3)OCO4)ccc21` returned an IC50 (MMP13 IC50 μM, Table IVb) of 0.105 µM. Where the note is “MMP13 IC50 μM, Table IVb”, `C#CCn1c(=O)c2cc(C(=O)NCc3ccc(OC)cc3)ccc2n(C)c1=O` yielded an IC50 of 0.68 µM. On the same count and under the same terms, to `COC(=O)c1ccc(Cn2c(=O)c3cc(C(=O)NCc4cccc(OC)c4)ccc3n(C)c2=O)cc1` belongs 0.003 µM; to `Cn1c(=O)n(Cc2ccccc2)c(=O)c2cc(SCc3ccccc3)ccc21` [3-Benzyl-6-benzylsulfanyl-1-methyl-1H-quinazoline-2,4-dione], 4.1 µM; to `COC(=O)c1ccc(Cn2c(=O)[nH]c3ccc(C(=O)NCc4ccc(OC)cc4)cc3c2=O)cc1`, 0.009 µM. Where the note is “IC50 μM, Table V, MMP-13”, `COc1ccc(CNC(=O)c2ccc3c(c2)c(=O)n(CCOc2ccc(Cl)cc2)c2nncn32)cc1` [4-[2-(4-Chloro-phenoxy)-ethyl]-5-oxo-4,5-dihydro-[1,2,4]triazolo[4,3-a]quinazoline-7-carboxylic acid 4-methoxy-benzylamide] gave an IC50 of 0.0865 µM.

For the compound `COc1ccc(CNC(=O)c2ccc3c(c2)c(=O)n(-c2ccc(CC(=O)O)cc2)c(=O)n3C)cc1`, the IC50 (MMP13 IC50 μM, Table IVb) worked out at 8 µM. `COc1ccc(CNC(=O)c2cnc3c(c2)c(=O)n(Cc2ccc(C(=O)O)cc2)c(=O)n3C)cc1` [4-[6-(4-Methoxy-benzylcarbamoyl)-1-methyl-2,4-dioxo-1,4-dihydro-2H-pyrido[2,3-d]pyrimidin-3-ylmethyl]-benzoic acid] showed a half-maximal inhibitory concentration (IC50) (MMP13 IC50 μM, Table IVb) of 0.0016 µM. For `Cc1c(=O)n(CCS(=O)(=O)Cc2ccccc2)c(=O)n2cc(C(=O)NCc3ccc(F)cc3)sc12`, where the note is “MMP13 IC50 (μM), Table 1b”, it took 0.56 µM to reach half-maximal inhibition (IC50).

In turn, `COc1ccc(C(=O)NCc2ccc3c(c2)OCO3)cc1C(=O)NCCOc1ccccc1` came in with an IC50 (MMP13 IC50 (nM), Table II) of 4.4 µM. `CSc1ccc(CNC(=O)c2ccc3c(c2)c(=O)n(Cc2ccc(C(=O)O)cc2)c(=O)n3C)cc1`: under “MMP13 IC50 μM, Table IVb”, it took 0.0029 µM to reach half-maximal inhibition (IC50). The compound `C/C=C/Cn1c(=O)c(C)c2sc(C(=O)NCc3ccc(F)cc3)cn2c1=O` gave an IC50 (MMP13 IC50 (μM), Table 1b) of 0.53 µM. In turn, `CC(C)=CCn1c(=O)c(C)c2sc(C(=O)NCc3ccc(F)cc3)cn2c1=O` gave an IC50 (MMP13 IC50 (μM), Table 1b) of 0.82 µM.

`Cn1c(=O)n(Cc2ccccc2)c(=O)c2cc(C(=O)CSc3ccncc3)ccc21` showed an IC50 (MMP13 IC50 μM, Table IVb) of 3.4 µM. On to `COC(=O)c1ccc(Cn2c(=O)c3cc(C(=O)NCc4ccc(OC)cc4)ccc3n(C)c2=O)cc1Cl`, for which the IC50 (MMP13 IC50 μM, Table IVb) was 0.14 µM. Where the note is “MMP13 IC50 μM, Table IVb”, `COC(=O)c1cccc(Cn2c(=O)c3cc(C(=O)NCc4ccc(OC)cc4)ccc3n(C)c2=O)c1` came in with an IC50 of 0.12 µM. Still for that read-out and setting: the same measure for `Cn1c(=O)n(Cc2ccncc2)c(=O)c2cc(C(=O)NCc3ccc(O)cc3)ccc21`: 0.051 µM; for `COc1ccc(CNC(=O)c2ccc3c(c2)c(=O)n(Cc2ccccn2)c(=O)n3C)cc1`: 0.43 µM. With `COc1ccc(CNC(=O)c2ccc3c(c2)c(=O)n(Cc2ccc([N+](=O)[O-])cc2)c(=O)n3C)cc1`, inhibition (MMP13 IC50 μM, Table IVb) was half-maximal at 0.014 µM (IC50). As for `CCOc1ccc(C(=O)NCc2cccc(OC)c2)cc1C(=O)NCc1cccc(OC)c1`, it took 1.83 µM to reach half-maximal inhibition (MMP13 IC50 (nM), Table II) (IC50).

As to `COc1ccc(CNC(=O)c2ccc3c(c2)c(=O)n(Cc2ccc(S(=O)(=O)N(C)C)cc2)c(=O)n3C)cc1`, 0.007 µM corresponded to half-maximal inhibition (MMP13 IC50 μM, Table IVb) (IC50). `Cn1c(=O)n(Cc2ccccc2)c(=O)c2cc(C(=O)NCc3ccc4c(c3)OCO4)cnc21` [3-Benzyl-1-methyl-2,4-dioxo-1,2,3,4-tetrahydro-pyrido[2,3-d] pyrimidine-6-carboxylic acid (1,3-benzodioxol-5-ylmethyl)-amide] returned a concentration for half-maximal inhibition (IC50) (MMP13 IC50 μM, Table IVb) of 0.007 µM. Where the note is “IC50 μM, Table V, MMP-13”, `O=C(NCCCSc1ccncc1)c1ccc2c(c1)c(=O)n(Cc1ccccc1)c1nncn21` [N-[3-(4-Pyridylsulphanyl)propyl]-4-benzyl-5-oxo-4,5-dihydro[1,2,4]triazolo[4,3-a]quinazoline-7-carboxamide] had an IC50 of 0.185 µM. `Nc1ccc(C(=O)NCc2ccc3c(c2)OCO3)cc1C(=O)NCc1ccc2c(c1)OCO2`: it took 4.1 µM to reach half-maximal inhibition (MMP13 IC50 (nM), Table II) (IC50). `COc1ccc(C(=O)NCc2ccccc2)cc1C(=O)NCCOc1ccccc1` registered a concentration for half-maximal inhibition (IC50) (MMP13 IC50 (nM), Table II) of 8.7 µM. `COc1cccc(CNC(=O)c2ccc3c(c2)c(=O)n(Cc2ccc(Cl)cc2)c(=O)n3C)c1`: the IC50 (MMP13 IC50 μM, Table IVb) was 0.0043 µM. In turn, `COc1cccc(CNC(=O)c2ccc3c(c2)c(=O)n(Cc2ccc(C(=O)O)cc2)c(=O)n3C)c1` yielded an IC50 (MMP13 IC50 μM, Table IVb) of 0.0009 µM. On the same count and under the same terms, the same measure for `COc1ccc(Cn2c(=O)c3cc(C(=O)NCc4ccncc4)ccc3n(C)c2=O)cc1`: 0.06 µM. As to `CC/C=C/Cn1c(=O)c(C)c2sc(C(=O)NCc3ccc(F)cc3)cn2c1=O`, where the note is “MMP13 IC50 (μM), Table 1b”, the IC50 is 0.16 µM. `COc1ccc(CNC(=O)c2ccc3c(c2)c(=O)n(CCn2cccc2)c(=O)n3C)cc1` displayed an IC50 (MMP13 IC50 μM, Table IVb) of 1.45 µM. For `COc1ccc(CNC(=O)c2ccc3c(c2)c(=O)n(Cc2ccc(C(=O)OCC(=O)OC(C)(C)C)cc2)c(=O)n3C)cc1`, the IC50 (MMP13 IC50 μM, Table IVb) was found to be 0.088 µM. As for `COc1ccc(CNC(=O)c2ccc3c(c2)c(=O)n(Cc2ccc(CC(=O)N(C)C)cc2)c(=O)n3C)cc1`, 0.008 µM corresponded to half-maximal inhibition (MMP13 IC50 μM, Table IVb) (IC50). `COc1ccc(CNC(=O)c2ccc3c(c2)c(=O)n(Cc2ccc(CC(=O)O)cc2)c2nncn32)cc1` [(4-{7-[(4-Methoxy)-benzylcarbamoyl]-5-oxo-5H-[1,2,4]triazolo[4,3-a]quinazolin-4-ylmethyl}-phenyl)-acetic acid] had an IC50 (IC50 μM, Table V, MMP-13) of 0.0013 µM. The compound `COc1ccc(CNC(=O)c2ccc3c(c2)c(=O)n(CCO)c(=O)n3C)cc1` displayed an IC50 (MMP13 IC50 μM, Table IVb) of 6.35 µM. For the compound `O=C(OCc1ccc2c(c1)OCO2)c1cccc(C(=O)OCc2ccc3c(c2)OCO3)c1` [Isophthalic acid bis-(1,3-benzodioxol-5-ylmethyl) ester], the IC50 (MMP13 IC50 (nM), Table II) was 0.66 µM.

On to `CCn1c(=O)n(Cc2cccc(F)c2)c(=O)c2cc(C(=O)NCc3ccncc3)ccc21`, for which the IC50 (MMP13 IC50 μM, Table IVb) worked out at 0.1 µM. Consider `COC(=O)c1ccc(Cn2c(=O)c3cc(C(=O)NCc4ccc(OC)cc4)ccc3n(C)c2=O)cc1C`, for which the IC50 (MMP13 IC50 μM, Table IVb) was found to be 0.0077 µM. `COc1ccc(CNC(=O)c2ccc3c(c2)c(=O)n(Cc2ccc(CC(=O)O)cc2)c(=O)n3C)cc1` gave an IC50 (MMP13 IC50 μM, Table IVb) of 0.0022 µM. In turn, `COc1ccc(CC#Cc2ccc3c(c2)c(=O)n(Cc2ccccc2)c2nncn32)cc1` [Synthesis Example 72, 4-Benzyl-7-[(4-methoxyphenyl)-prop-1-ynyl]-4H-[1,2,4]-triazolo[4,3-a]quinazolin-5-one] gave an IC50 (IC50 μM, Table VII, MMP-13) of 0.0015 µM.

As to `Cn1c(=O)n(Cc2ccc(C(=O)O)cc2)c(=O)c2cc(C(=O)NCc3ccc4nonc4c3)ccc21`, half-maximal inhibition (MMP13 IC50 μM, Table IVb) (IC50) required 0.003 µM.

In the case of `COc1ccc(CNC(=O)c2ccc3c(c2)c(=O)n(Cc2ccc(C(=O)O)c(Cl)c2)c(=O)n3C)cc1`, under “MMP13 IC50 μM, Table IVb”, the half-inhibitory concentration (IC50) was determined as 0.004 µM. The same measure, in the same setting: the same measure for `COc1cc(CNC(=O)c2ccc3c(c2)c(=O)n(Cc2ccc(Br)cc2)c(=O)n3C)ccn1`: 0.0076 µM. For the setting “IC50 μM, Table V, MMP-13”, `O=C(O)Cc1ccc(Cn2c(=O)c3cc(C(=O)NCc4ccc5c(c4)OCO5)ccc3n3cnnc23)cc1` [(4-{7-[(1,3-Benzodioxol-5-ylmethyl)-carbamoyl]-5-oxo-5H-[1,2,4]triazolo[4,3-a]quinazolin-4-ylmethyl}-phenyl)-acetic acid] registered an IC50 of 0.0011 µM. For the compound `CCOc1ccccc1COC(=O)c1cc2c(=O)n(Cc3ccc(C(=O)O)cc3)c(=O)n(C)c2s1`, where the note is “MMP 13 IC50 μM, Table III”, the half-maximal inhibitory concentration (IC50) is 8 µM. `COc1ccc(C(=O)NCc2ccc3c(c2)OCO3)cc1C(=O)NCc1ccc(Cl)cc1` [N-1,3-Benzodioxol-5-ylmethyl-N′-(4-chloro-benzyl)-4-methoxy-isophthalamide]: under “MMP13 IC50 (nM), Table II”, half-maximal inhibition (IC50) was put at 0.4 µM.

Turning to `COc1ccc(CNC(=O)c2ccc3c(c2)c(=O)n(Cc2cccnc2)c(=O)n3C)cc1`, for the setting “MMP13 IC50 μM, Table IVb”, the IC50 was 0.046 µM. Take `Cn1c(=O)n(Cc2ccccc2)c(=O)c2cc(C(=O)NCc3ccc(OCC(=O)O)cc3)ccc21`: the IC50 (MMP13 IC50 μM, Table IVb) came to 2.9 µM. For `Cn1c(=O)n(Cc2ccccc2)c(=O)c2cc(C(=O)NCc3ccc(C#N)cc3)ccc21`, for the setting “MMP13 IC50 μM, Table IVb”, the half-maximal inhibitory concentration (IC50) is 0.34 µM.

For the compound `CCOCCNC(=O)c1ccc(OC)c(C(=O)NCc2ccc3c(c2)OCO3)c1`, 5.7 µM corresponded to half-maximal inhibition (MMP13 IC50 (nM), Table II) (IC50). Where the note is “IC50 μM, Table V, MMP-13”, `N#Cc1ccc(Cn2c(=O)c3cc(C(=O)NCc4ccc5c(c4)OCO5)ccc3n3cnnc23)cc1` [Synthesis Example 58, N-(3,4-Methylenedioxybenzyl)-4-(4-cyanobenzyl)-5-oxo-4H-[1,2,4]triazolo[4,3-a]quinazol-7-ylcarboxamide] displayed an IC50 of 0.0023 µM.

Compound `Cn1c(=O)n(Cc2ccc(C(=O)O)cc2)c(=O)c2cc(C#CCc3ccccc3)ncc21` [Synthesis Example 69, 4-[1-Methyl-2,4-dioxo-6-(3-phenyl-prop-1-ynyl)-1,4-dihydro-2H-pyrido[3,4-d]pyrimidin-3-ylmethyl]-benzoic acid] displayed an IC50 (IC50 μM, Table VII, MMP-13) of 0.0065 µM. For `COc1ccc(CNC(=O)c2ccc3c(c2)c(=O)n(CCOc2ccc(F)cc2)c(=O)n3C)cc1`, where the note is “MMP13 IC50 μM, Table IVb”, it took 0.15 µM to reach half-maximal inhibition (IC50). The compound `COC(=O)c1ccc(Cn2c(=O)c3cc(C(=O)NCc4ccc(OC)cc4)ccc3n(C)c2=O)cc1O` showed an IC50 (MMP13 IC50 μM, Table IVb) of 0.0043 µM. For `COc1ccc(CNC(=O)c2ccc3c(c2)c(=O)n(Cc2ccc(-c4nnnn4C)cc2)c(=O)n3C)cc1`, 0.0023 µM corresponded to half-maximal inhibition (MMP13 IC50 μM, Table IVb) (IC50).
